Test results: patent US8252793B2, “Bradykinin receptor agonists and uses thereof to treat ocular hypertension and glaucoma” (Alcon Research, Ltd., priority 2010, dated 2012)

Legend:
[1] = system: primary human ciliary muscle cells (h-CM); assay: Total prostaglandin (PG) release from primary h-CM cells (EIA); assay type: cell-based; settings: Homo sapiens, 1 h, 1 hour at 37° C., class symbols (in μM)
Outline: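 Confluent primary h-CM cells, serum-starved (0.8% FBS) 24 h, were exposed to a 9-point concentration series (0.1 nM-10 μM) of bradykinin or BK agonist for 1 hour at 37° C. Total PG released was then quantified by EIA.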

[2] = target: T1, recombinant human bradykinin B2 receptor (Homo sapiens, UniProt P30411); assay: [3H]-BK competition radioligand binding to human cloned B2 receptor (CHO cell membranes); settings: 0.2 nM [3H]-bradykinin, CHO membranes, 60 min 23° C.; mean ± SEM or single value; Ki from IC50 by Cheng-Prusoff; read-out: [3H]-BK Binding to Human Cloned B2 Receptor (Ki)
T1 construct: expressed in transfected cells; host or cells: Chinese hamster ovary (CHO) cells, membrane homogenates
T1 sequence (P30411 1-391): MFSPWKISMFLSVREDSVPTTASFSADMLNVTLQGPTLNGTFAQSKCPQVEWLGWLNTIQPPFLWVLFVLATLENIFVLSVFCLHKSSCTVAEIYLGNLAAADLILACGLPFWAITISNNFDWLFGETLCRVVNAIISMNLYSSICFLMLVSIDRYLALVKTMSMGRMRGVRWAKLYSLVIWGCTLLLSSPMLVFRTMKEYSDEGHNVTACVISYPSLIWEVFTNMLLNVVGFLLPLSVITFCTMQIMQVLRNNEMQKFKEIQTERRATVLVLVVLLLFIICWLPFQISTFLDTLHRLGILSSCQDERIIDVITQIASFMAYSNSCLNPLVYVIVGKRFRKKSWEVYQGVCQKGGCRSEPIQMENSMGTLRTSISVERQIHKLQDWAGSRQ

[3] = target: T2, BK receptors in human ciliary muscle cells (h-CM) (Homo sapiens, UniProt P30411); assay: Functional assay measuring [Ca2+]i mobilization (FLIPR) in h-CM cells; assay type: cell-based; settings: class symbols (in μM), read-out: CaM (EC50)
T2 construct: h-CM cells expressing BK receptors were seeded; endogenous in cells; host or cells: human ciliary muscle (h-CM) cells
T2 sequence (P30411 1-391): T1 sequence (P30411 1-391)
Outline: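 Human ciliary muscle cells loaded 1 h at 23 °C with FLIPR calcium dye in HBSS, 20 mM HEPES, 2.5 mM probenecid, pH 7.4. EC50 by 4-parameter fit.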

Compound | EC50 [1] [µM] | Ki [2] [nM] | EC50 [3] [µM]
COc1nc2c(OCc3c(Cl)ccc(N(C)C(=O)CNC(=O)CN4CCOC(C(=O)NCCO)C4)c3Cl)cccc2n1Cc1ccccn1 (stereo not drawn) [Compound 80] | 0.1 to 1 | 279 | < 0.1
COc1nc2c(OCc3c(Cl)ccc(N(C)C(=O)CNC(=O)CCc4cnc(NC(C)=O)nc4)c3Cl)cccc2n1Cc1ccccn1 [Compound 77] | 0.1 to 1 | 229 | < 0.1
CNC(=O)C1CCCN(CC(=O)NCC(=O)N(C)c2ccc(Cl)c(COc3cccc4c3nc(OC)n4Cc3ccccn3)c2Cl)C1 (stereo not drawn) [Compound 35, 1-(2-(2-((2,4-dichloro-3-((2-methoxy-1-(pyridin-2-ylmethyl)-1H-benzo[d]imidazol-4-yloxy)methyl)phenyl)(methyl)amino)-2-oxoethylamino)-2-oxoethyl)-N-methylpiperidine-3-carboxamide] | 0.1 to 1 | 396 | < 0.1
COC(=O)Nc1ccc(CCC(=O)NCC(=O)N(C)c2ccc(C)c(COc3cccc4c3nc(OC)n4Cc3ccccn3)c2C)cn1 [Compound 4, methyl (5-(3-((2-((3-(((2-methoxy-1-(pyridin-2-ylmethyl)-1H-benzo[d]imidazol-4-yl)oxy)methyl)-2,4-dimethylphenyl)(methyl)amino)-2-oxoethyl)amino)-3-oxopropyl)pyridin-2-yl)carbamate] | > 1 | 158 | 0.1 to 1
CNC(=O)[C@@H]1CC[C@H](CCC(=O)NCC(=O)N(C)c2ccc(Cl)c(COc3cccc4c3nc(OC)n4Cc3ccccn3)c2Cl)CN1 [Compound 39, (2S,5R)-5-(3-((2-((2,4-dichloro-3-(((2-methoxy-1-(pyridin-2-ylmethyl)-1H-benzo[d]imidazol-4-yl)oxy)methyl)phenyl)(methyl)amino)-2-oxoethyl)amino)-3-oxopropyl)-N-methylpiperidine-2-carboxamide] | 0.1 to 1 | 514 | 0.1 to 1
CNC(=O)N1CCN(CC(=O)NCC(=O)N(C)c2ccc(Cl)c(COc3cccc4c3nc(OC)n4Cc3ccccn3)c2Cl)CC1 [Compound 20] | > 1 | 1090 ± 138 | 0.1 to 1
CCc1nc2c(OCc3c(Cl)ccc(N(C)C(=O)CNC(=O)CCC4CN=C(NC(C)=O)NC4)c3Cl)cccc2n1Cc1ccccn1 (stereo not drawn) [Compound 61] | > 1 | 451 | < 0.1
COc1nc2c(OCc3c(Cl)ccc(N(C)C(=O)CNC(=O)[C@@H]4CCN(C(=O)OC(C)(C)C)C4)c3Cl)cccc2n1Cc1ccccn1 [Compound 62] | 0.1 to 1 | 105 | < 0.1
CNC(=O)c1ccc(CCC(=O)NCC(=O)N(C)c2ccc(Cl)c(COc3cccc4c(OCc5ccccn5)cc(C)nc34)c2Cl)cc1 [Compound 30] | 0.1 to 1 | 3 | 0.1 to 1
CNC(=O)N1CCOC(CC(=O)NCC(=O)N(C)c2ccc(Cl)c(COc3cccc4c3nc(OC)n4Cc3ccccn3)c2Cl)C1 (stereo not drawn) [Compound 79] | > 1 | 859 | 0.1 to 1
COc1nc2c(OCc3c(Cl)ccc(N(C)C(=O)CNC(=O)CCc4ccc(NC(=O)CN)nc4)c3Cl)cccc2n1Cc1ccccn1 [Compound 74, 3-(6-(2-aminoacetamido)pyridin-3-yl)-N-(2-((2,4-dichloro-3-(((2-methoxy-1-(pyridin-2-ylmethyl)-1H-benzo[d]imidazol-4-yl)oxy)methyl)phenyl)(methyl)amino)-2-oxoethyl)propanamide] | 0.1 to 1 | 384 | < 0.1
CNC(=O)[C@H]1CCCN(CC(=O)NCC(=O)N(C)c2ccc(Cl)c(COc3cccc4c3nc(OC)n4Cc3ccccn3)c2Cl)C1 [Compound 36, (S)-1-(2-(2-((2,4-dichloro-3-((2-methoxy-1-(pyridin-2-ylmethyl)-1H-benzo[d]imidazol-4-yloxy)methyl)phenyl)(methyl)amino)-2-oxoethylamino)-2-oxoethyl)-N-methylpiperidine-3-carboxamide] | 0.1 to 1 | 220 | < 0.1

Next, values leading:

EC50 [1] [µM] | Ki [2] [nM] | EC50 [3] [µM] | Compound
< 0.1 | 7 ± 1 | < 0.1 | CNC(=O)c1ccc(CCC(=O)NCC(=O)N(C)c2ccc(Cl)c(COc3cccc4c3nc(OC)n4Cc3ccccn3)c2Cl)cc1 [Compound 33, 4-(3-((2-((2,4-dichloro-3-(((2-methoxy-1-(pyridin-2-ylmethyl)-1H-benzo[d]imidazol-4-yl)oxy)methyl)phenyl)(methyl)amino)-2-oxoethyl)amino)-3-oxopropyl)-N-methylbenzamide]
< 0.1 | 101 | < 0.1 | COC(=O)Nc1ccc(CCC(=O)NCC(=O)N(C)c2ccc(Cl)c(COc3cccc4c3nc(OC)n4Cc3ccccn3)c2Cl)cn1 [Compound 2, methyl (5-(3-((2-((2,4-dichloro-3-(((2-methoxy-1-(pyridin-2-ylmethyl)-1H-benzo[d]imidazol-4-yl)oxy)methyl)phenyl)(methyl)amino)-2-oxoethyl)amino)-3-oxopropyl)pyridin-2-yl)carbamate]
0.1 to 1 | 74 ± 6 | < 0.1 | COc1nc2c(OCc3c(Cl)ccc(N(C)C(=O)CNC(=O)CCC4CN=C(NC(C)=O)NC4)c3Cl)cccc2n1Cc1ccccn1 (stereo not drawn) [Compound 25, 3-(2-acetamido-1,4,5,6-tetrahydropyrimidin-5-yl)-N-(2-((2,4-dichloro-3-(((2-methoxy-1-(pyridin-2-ylmethyl)-1H-benzo[d]imidazol-4-yl)oxy)methyl)phenyl)(methyl)amino)-2-oxoethyl)propanamide]
0.1 to 1 | 599 | < 0.1 | COc1nc2c(OCc3c(Cl)ccc(N(C)C(=O)CNC(=O)CCCNC(C)=O)c3Cl)cccc2n1Cc1ccccn1 [Compound 70]
< 0.1 | 102 | < 0.1 | CNC(=O)C1CN(CC(=O)NCC(=O)N(C)c2ccc(Cl)c(COc3cccc4c3nc(OC)n4Cc3ccccn3)c2Cl)CCO1 (stereo not drawn) [Compound 44, 4-(2-((2-((2,4-dichloro-3-(((2-methoxy-1-(pyridin-2-ylmethyl)-1H-benzo[d]imidazol-4-yl)oxy)methyl)phenyl)(methyl)amino)-2-oxoethyl)amino)-2-oxoethyl)-N-methylmorpholine-2-carboxamide]
< 0.1 | 332 | < 0.1 | CNC(=O)[C@H]1CC[C@H](CCC(=O)NCC(=O)N(C)c2ccc(Cl)c(COc3cccc4c3nc(OC)n4Cc3ccccn3)c2Cl)CN1 [Compound 38, (2R,5R)-5-(3-((2-((2,4-dichloro-3-(((2-methoxy-1-(pyridin-2-ylmethyl)-1H-benzo[d]imidazol-4-yl)oxy)methyl)phenyl)(methyl)amino)-2-oxoethyl)amino)-3-oxopropyl)-N-methylpiperidine-2-carboxamide]
< 0.1 | 55.2 | < 0.1 | COC(=O)c1ccc(CCC(=O)NCC(=O)N(C)c2ccc(Cl)c(COc3cccc4c3nc(OC)n4Cc3ccccn3)c2Cl)cc1 [Compound 37, methyl 4-(3-(2-((2,4-dichloro-3-((2-methoxy-1-(pyridin-2-ylmethyl)-1H-benzo[d]imidazol-4-yloxy)methyl)phenyl)(methyl)amino)-2-oxoethylamino)-3-oxopropyl)benzoate]
< 0.1 | 25 ± 8 | < 0.1 | COc1nc2c(OCc3c(Cl)ccc(N(C)C(=O)CNC(=O)CCc4ccc(NC(C)=O)nc4)c3Cl)cccc2n1Cc1ccccn1 [Compound 32, 3-(6-acetamidopyridin-3-yl)-N-(2-((2,4-dichloro-3-(((2-methoxy-1-(pyridin-2-ylmethyl)-1H-benzo[d]imidazol-4-yl)oxy)methyl)phenyl)(methyl)amino)-2-oxoethyl)propanamide]
< 0.1 | 78.3 | < 0.1 | COc1nc2c(OCc3c(Cl)ccc(N(C)C(=O)CNC(=O)CN4CCO[C@@H](C(=O)NC5CC5)C4)c3Cl)cccc2n1Cc1ccccn1 [Compound 84]
< 0.1 | 54 | < 0.1 | COCCNC(=O)c1ccc(CCC(=O)NCC(=O)N(C)c2ccc(Cl)c(COc3cccc4c3nc(OC)n4Cc3ccccn3)c2Cl)cc1 [Compound 1, 4-(3-((2-((2,4-dichloro-3-(((2-methoxy-1-(pyridin-2-ylmethyl)-1H-benzo[d]imidazol-4-yl)oxy)methyl)phenyl)(methyl)amino)-2-oxoethyl)amino)-3-oxopropyl)-N-(2-methoxyethyl)benzamide]
< 0.1 | 3 | 0.1 to 1 | CC(=O)Nc1ccc(CCC(=O)NCC(=O)N(C)c2ccc(Cl)c(COc3cccc4c(OCc5ccccn5)cc(C)nc34)c2Cl)cc1 [Compound 28, 3-(4-acetamidophenyl)-N-(2-((2,4-dichloro-3-(((2-methyl-4-(pyridin-2-ylmethoxy)quinolin-8-yl)oxy)methyl)phenyl)(methyl)amino)-2-oxoethyl)propanamide]
